“And” between values parts separate entries of the source, which are not always exact repeats. Equal values may be shown once.
What was measured:
MRP3 = MRP3 (Homo sapiens, UniProt O15438); test: Vesicular transport inhibition assay, MRP3; conditions: for Accumulation (counts per minute; CPM) with ATP / Accumulation (counts per minute; CPM) with AMP: MRP3;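 also: membrane vesicles with radiolabelled probe substrate and 2 mM glutathione, 4 mM ATP versus AMP background control, vesicle-trapped substrate quantified by liquid scintillation counting after filtration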;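 as to Accumulation (counts per minute; CPM) with AMP: ATP 4 mM vs AMP background separates transporter uptake from diffusion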;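 as to Accumulation (counts per minute; CPM) with ATP: ATP 4 mM vs AMP background separates transporter uptake from diffusion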
Chain of MRP3 (O15438 whole entry, the tested form may be a part): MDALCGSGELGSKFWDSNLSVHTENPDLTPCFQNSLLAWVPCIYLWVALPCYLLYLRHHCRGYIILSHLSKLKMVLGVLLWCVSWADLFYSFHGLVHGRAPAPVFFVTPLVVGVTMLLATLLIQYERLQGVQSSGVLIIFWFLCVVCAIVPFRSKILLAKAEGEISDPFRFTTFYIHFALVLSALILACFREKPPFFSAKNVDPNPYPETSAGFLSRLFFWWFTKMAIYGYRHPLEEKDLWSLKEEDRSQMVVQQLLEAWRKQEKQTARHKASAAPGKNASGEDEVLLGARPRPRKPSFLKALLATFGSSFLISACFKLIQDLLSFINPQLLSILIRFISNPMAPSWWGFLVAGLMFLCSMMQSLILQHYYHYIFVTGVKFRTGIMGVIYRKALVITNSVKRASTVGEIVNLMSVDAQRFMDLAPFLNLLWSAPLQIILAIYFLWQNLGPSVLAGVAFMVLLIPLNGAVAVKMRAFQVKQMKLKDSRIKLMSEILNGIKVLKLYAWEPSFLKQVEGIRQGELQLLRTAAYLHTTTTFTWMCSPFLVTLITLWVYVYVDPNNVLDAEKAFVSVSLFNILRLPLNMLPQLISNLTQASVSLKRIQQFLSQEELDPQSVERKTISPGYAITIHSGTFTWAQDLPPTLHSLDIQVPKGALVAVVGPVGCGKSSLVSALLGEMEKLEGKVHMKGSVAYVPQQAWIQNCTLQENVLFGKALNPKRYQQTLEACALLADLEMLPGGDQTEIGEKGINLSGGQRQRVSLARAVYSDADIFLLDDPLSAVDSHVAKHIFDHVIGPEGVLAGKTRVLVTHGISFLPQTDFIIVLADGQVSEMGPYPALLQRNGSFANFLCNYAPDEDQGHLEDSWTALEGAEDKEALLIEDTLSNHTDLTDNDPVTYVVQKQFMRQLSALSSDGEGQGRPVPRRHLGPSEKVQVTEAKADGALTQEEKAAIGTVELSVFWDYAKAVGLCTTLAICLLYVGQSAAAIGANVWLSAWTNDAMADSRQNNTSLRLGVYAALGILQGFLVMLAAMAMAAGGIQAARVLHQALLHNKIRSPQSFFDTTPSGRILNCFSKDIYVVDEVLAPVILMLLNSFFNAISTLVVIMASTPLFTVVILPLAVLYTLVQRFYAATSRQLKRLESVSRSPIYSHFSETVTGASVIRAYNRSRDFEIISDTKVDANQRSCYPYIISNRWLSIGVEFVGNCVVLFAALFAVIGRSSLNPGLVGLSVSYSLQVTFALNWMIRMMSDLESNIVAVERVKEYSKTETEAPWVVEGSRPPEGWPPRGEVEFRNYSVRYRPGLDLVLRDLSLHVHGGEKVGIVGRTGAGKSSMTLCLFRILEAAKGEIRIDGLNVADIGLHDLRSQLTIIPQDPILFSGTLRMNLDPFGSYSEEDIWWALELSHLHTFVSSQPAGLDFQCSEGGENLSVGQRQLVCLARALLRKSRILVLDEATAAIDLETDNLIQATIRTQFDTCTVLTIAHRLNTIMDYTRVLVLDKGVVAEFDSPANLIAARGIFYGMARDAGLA
Method: In the vesicular transport inhibition assay (for BSEP, MRP) compounds were incubated with membrane vesicle preparations and the probe substrate. Incubations were carried out in the presence of 4 mM ATP or AMP to distinguish between transporter-mediated uptake and passive diffusion into the vesicles. For MRP2 and MRP3, reactions were carried out in the presence of 2 mM glutathione. Compounds were added to the reaction mixture in 0.75 μL of solvent (1% of the final incubation volume). […] Reactions were initiated by the addition of 25 μL of 12 mM MgATP (or 12 mM AMP in assay buffer as a background control) and preincubated separately. Reactions were quenched by the addition of 200 μL of ice-cold washing buffer and immediate filtration via glass fiber filters mounted on a 96-well plate (filter plate). The filters were washed (5 × 200 μL of ice-cold washing buffer), dried, and the amount of substrate inside the filtered vesicles was determined by liquid scintillation counting.

OAT2v1 = target: T1, OAT2v1 (Homo sapiens, UniProt Q9Y694); test: Uptake transporter inhibition assay, OAT2v1; type: cell-based; conditions: for Accumulation (counts per minute; CPM) HEK293FT-MOCK / Accumulation (counts per minute; CPM) HEK293FT-OAT2v1: OAT2v1
T1 construct: expressed in transfected cells; host or cells: HEK cells
T1 sequence (Q9Y694 1-546 isoform Q9Y694-2): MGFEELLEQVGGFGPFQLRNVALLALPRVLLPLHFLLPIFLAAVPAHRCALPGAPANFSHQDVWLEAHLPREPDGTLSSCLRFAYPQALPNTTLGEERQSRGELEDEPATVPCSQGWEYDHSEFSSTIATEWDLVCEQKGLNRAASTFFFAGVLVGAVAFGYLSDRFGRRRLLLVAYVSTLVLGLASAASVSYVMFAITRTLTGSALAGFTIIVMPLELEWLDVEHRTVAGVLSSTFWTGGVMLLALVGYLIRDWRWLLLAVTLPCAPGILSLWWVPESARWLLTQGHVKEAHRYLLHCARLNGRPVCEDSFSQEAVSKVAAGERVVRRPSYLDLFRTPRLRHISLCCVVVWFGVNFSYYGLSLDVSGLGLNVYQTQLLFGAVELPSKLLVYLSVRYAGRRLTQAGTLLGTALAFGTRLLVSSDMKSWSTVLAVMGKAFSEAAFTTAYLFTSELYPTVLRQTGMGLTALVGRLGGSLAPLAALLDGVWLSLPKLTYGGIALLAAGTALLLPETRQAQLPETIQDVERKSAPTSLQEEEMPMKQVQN
Method: For the uptake transporter inhibition assay, cells were washed twice with 100 μL of the appropriate buffer (HK, pH 7.4) for OATP1B1, followed by HBSS (pH 7.4) for (NTCP, OAT1, OAT2v1, OATP1A2, and OATP1B3). Uptake experiments were carried out at 37 ± 1°C in 50 μL of the respective buffer containing the probe substrate and the compound or solvent.

OAT1 = target: T2, OAT1 (Homo sapiens, UniProt Q4U2R8); test: Uptake transporter inhibition assay, OAT1; conditions: for Accumulation (counts per minute; CPM) HEK293FT-MOCK / Accumulation (counts per minute; CPM) HEK293FT-OAT1: OAT1;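 also: HEK293FT cells expressing OAT1 or mock, uptake of radiolabeled probe substrate at 37 °C in HBSS pH 7.4 with test compound or solvent, cell lysate read by liquid scintillation counting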
T2 sequence (Q4U2R8 1-563): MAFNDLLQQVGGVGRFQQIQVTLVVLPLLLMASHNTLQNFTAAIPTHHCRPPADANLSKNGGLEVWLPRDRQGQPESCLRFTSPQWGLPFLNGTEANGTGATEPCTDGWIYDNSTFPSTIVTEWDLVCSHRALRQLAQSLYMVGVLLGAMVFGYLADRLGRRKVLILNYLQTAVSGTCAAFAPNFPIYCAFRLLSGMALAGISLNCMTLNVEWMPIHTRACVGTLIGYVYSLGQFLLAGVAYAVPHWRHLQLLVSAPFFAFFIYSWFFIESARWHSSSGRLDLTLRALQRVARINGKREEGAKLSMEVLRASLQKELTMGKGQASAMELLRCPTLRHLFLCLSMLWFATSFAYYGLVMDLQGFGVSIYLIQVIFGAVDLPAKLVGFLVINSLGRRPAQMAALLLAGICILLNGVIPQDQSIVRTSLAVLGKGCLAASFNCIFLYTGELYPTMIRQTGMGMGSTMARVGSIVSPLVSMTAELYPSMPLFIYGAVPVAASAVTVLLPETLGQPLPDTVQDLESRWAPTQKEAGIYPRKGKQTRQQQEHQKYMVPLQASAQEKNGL
Method: For the uptake transporter inhibition assay, cells were washed twice with 100 μL of the appropriate buffer (HK, pH 7.4) for OATP1B1, followed by HBSS (pH 7.4) for (NTCP, OAT1, OAT2v1, OATP1A2, and OATP1B3). Uptake experiments were carried out at 37 ± 1°C in 50 μL of the respective buffer containing the probe substrate and the compound or solvent. […] After the experiment, cells were washed twice with 100 μL of cold appropriate buffer and lysed with 50 μL of 0.1 M NaOH. Radiolabeled probe substrate transport was determined by measuring an aliquot (35 μL) from each well for liquid scintillation counting.

[1] = Stability in microsomes, mouse; type: in vitro ADME; conditions: for average DEG [%]: mouse microsomes, with cofactors
Method: The final incubation volume was 500 μL. Two control compounds (verapamil and donepezil) were included for each microsomal species, along with the appropriate vehicle control. The reactions were terminated by transferring 50 μL of incubate to 100 μL methanol containing an internal standard (metoprolol) at appropriate time points (0, 10, 20, 40, 60, and 120 min for the test compound and 0, 5, 10, 20, 40, and 60 min for the control compounds). The termination plates were centrifuged at 4000 x g at 4°C for 30 min to precipitate the protein. The supernatants were then collected for analysis, and LC-MS/MS was used for detection purposes. The system consisted of an Acquity™ Binary Solvent Manager, Acquity™ 4-position heated column manager, 2777 Ultra High Pressure Autosampler, and a Xevo-TQ MS triple quadrupole mass spectrometer (Waters Ltd., Herts, UK). This process was carried out twice.

[2] = Mouse (CD) microsomes, mean n = 2

CC#C[C@@H](CC(=O)O)c1ccc(OCC(C)=C(C)C)cc1 [CPL207280]
Accumulation (counts per minute; CPM) with ATP (MRP3; conc 0.10 µM): 3273 CPM and 4152 CPM
Accumulation (counts per minute; CPM) with AMP (MRP3; conc 1.00 µM): 221 CPM and 228 CPM
Accumulation (counts per minute; CPM) with ATP (MRP3; conc 1.00 µM): 4818 CPM and 3968 CPM
Accumulation (counts per minute; CPM) with AMP (MRP3; conc 3.00 µM): 249 CPM and 236 CPM
Accumulation (counts per minute; CPM) with ATP (MRP3; conc 3.00 µM): 4175 CPM and 4726 CPM
Accumulation (counts per minute; CPM) with AMP (MRP3; conc 10.00 µM): 274 CPM and 219 CPM
Accumulation (counts per minute; CPM) with ATP (MRP3; conc 10.00 µM): 3924 CPM and 3961 CPM
Accumulation (counts per minute; CPM) with AMP (MRP3; conc 30.00 µM): 231 CPM and 249 CPM
Accumulation (counts per minute; CPM) with ATP (MRP3; conc 30.00 µM): 5849 CPM and 5611 CPM
Accumulation (counts per minute; CPM) with AMP (MRP3; conc 100.00 µM): 250 CPM and 247 CPM
Accumulation (counts per minute; CPM) with ATP (MRP3; conc 100.00 µM): 5885 CPM and 4953 CPM
Accumulation (counts per minute; CPM) with AMP (MRP3; conc 300.00 µM): 206 CPM and 163 CPM
Accumulation (counts per minute; CPM) with ATP (MRP3; conc 300.00 µM): 6861 CPM and 6621 CPM
MRP3 Estimated IC50 (95% CI of IC50) (MRP3; vesicles, up to 300μM, n = 2): no affinity
fold less inhibitory potency than TAK-875, OAT2v1 (OAT2v1): at least 10 fold
Accumulation (counts per minute; CPM) HEK293FT-MOCK (OAT2v1; conc 0.10 µM): 34 CPM and 30 CPM
Accumulation (counts per minute; CPM) HEK293FT-OAT2v1 (OAT2v1; conc 0.10 µM): 4632 CPM and 4226 CPM
Accumulation (counts per minute; CPM) HEK293FT-MOCK (OAT2v1; conc 1.00 µM): 35 CPM and 32 CPM
Accumulation (counts per minute; CPM) HEK293FT-OAT2v1 (OAT2v1; conc 1.00 µM): 4766 CPM and 4500 CPM
Accumulation (counts per minute; CPM) HEK293FT-MOCK (OAT2v1; conc 3.00 µM): 30 CPM and 23 CPM
Accumulation (counts per minute; CPM) HEK293FT-OAT2v1 (OAT2v1; conc 3.00 µM): 4371 CPM and 4417 CPM
Accumulation (counts per minute; CPM) HEK293FT-MOCK (OAT2v1; conc 10.00 µM): 27 CPM and 18 CPM
Accumulation (counts per minute; CPM) HEK293FT-OAT2v1 (OAT2v1; conc 10.00 µM): 4079 CPM and 4225 CPM
Accumulation (counts per minute; CPM) HEK293FT-MOCK (OAT2v1; conc 30.00 µM): 32 CPM and 37 CPM
Accumulation (counts per minute; CPM) HEK293FT-OAT2v1 (OAT2v1; conc 30.00 µM): 3998 CPM and 4091 CPM
Accumulation (counts per minute; CPM) HEK293FT-MOCK (OAT2v1; conc 100.00 µM): 28 CPM and 36 CPM
Accumulation (counts per minute; CPM) HEK293FT-OAT2v1 (OAT2v1; conc 100.00 µM): 3763 CPM and 3594 CPM
Accumulation (counts per minute; CPM) HEK293FT-MOCK (OAT2v1; conc 300.00 µM): 35 CPM and 25 CPM
Accumulation (counts per minute; CPM) HEK293FT-OAT2v1 (OAT2v1; conc 300.00 µM): 2566 CPM and 2951 CPM
IC50 (OAT1): 245 µM
fold less inhibitory potency than TAK-875, OAT1 (OAT1): at least 10 fold
Accumulation (counts per minute; CPM) HEK293FT-MOCK (OAT1; conc 0.10 µM): 50 CPM and 53 CPM
Accumulation (counts per minute; CPM) HEK293FT-OAT1 (OAT1; conc 0.10 µM): 3966 CPM and 4397 CPM
Accumulation (counts per minute; CPM) HEK293FT-MOCK (OAT1; conc 1.00 µM): 48 CPM and 53 CPM
Accumulation (counts per minute; CPM) HEK293FT-OAT1 (OAT1; conc 1.00 µM): 3796 CPM and 3875 CPM
Accumulation (counts per minute; CPM) HEK293FT-MOCK (OAT1; conc 3.00 µM): 43 CPM
Accumulation (counts per minute; CPM) HEK293FT-OAT1 (OAT1; conc 3.00 µM): 3567 CPM and 3805 CPM
Accumulation (counts per minute; CPM) HEK293FT-OAT1 (OAT1; conc 10.00 µM): 3588 CPM and 3708 CPM
Accumulation (counts per minute; CPM) HEK293FT-MOCK (OAT1; conc 30.00 µM): 36 CPM and 51 CPM
Accumulation (counts per minute; CPM) HEK293FT-OAT1 (OAT1; conc 30.00 µM): 3509 CPM and 3520 CPM
Accumulation (counts per minute; CPM) HEK293FT-MOCK (OAT1; conc 100.00 µM): 35 CPM and 46 CPM
Accumulation (counts per minute; CPM) HEK293FT-OAT1 (OAT1; conc 100.00 µM): 2841 CPM and 2828 CPM
Accumulation (counts per minute; CPM) HEK293FT-MOCK (OAT1; conc 300.00 µM): 36 CPM and 54 CPM
Accumulation (counts per minute; CPM) HEK293FT-OAT1 (OAT1; conc 300.00 µM): 1655 CPM and 1827 CPM
half-life at 3 μM [1, 2]: 1.93 h
microsomal CLint at 3 μM [1, 2]: 11.9 µL/min/mg
average DEG [%] ([1]; 0 min): 100.0%
average DEG [%] ([1]; 20 min): 83.3%
average DEG [%] ([1]; 40 min): 69.8%
average DEG [%] ([1]; 60 min): 71.2%
